Laboratory results: article PMC6747274, “Multifunctional Peptides from Spanish Dry-Cured Pork Ham: Endothelial Responses and Molecular Modeling Studies” (International Journal of Molecular Sciences, 2019)
Several values for one entry are separate records, joined by “and”; a condition that tells them apart may be missing. Equal entries are not always repeated. Entries after “also recorded” stand apart in the source; their conditions may differ. Where no end group is shown, it is not given here.

What was measured:
human ACE = human ACE (Homo sapiens, UniProt P12821); assay: Human ACE inhibition assay (lysate of ACE-transfected EA.hy926 cells, HHL substrate, HPLC)
human ACE, sequence (P12821 30-1306): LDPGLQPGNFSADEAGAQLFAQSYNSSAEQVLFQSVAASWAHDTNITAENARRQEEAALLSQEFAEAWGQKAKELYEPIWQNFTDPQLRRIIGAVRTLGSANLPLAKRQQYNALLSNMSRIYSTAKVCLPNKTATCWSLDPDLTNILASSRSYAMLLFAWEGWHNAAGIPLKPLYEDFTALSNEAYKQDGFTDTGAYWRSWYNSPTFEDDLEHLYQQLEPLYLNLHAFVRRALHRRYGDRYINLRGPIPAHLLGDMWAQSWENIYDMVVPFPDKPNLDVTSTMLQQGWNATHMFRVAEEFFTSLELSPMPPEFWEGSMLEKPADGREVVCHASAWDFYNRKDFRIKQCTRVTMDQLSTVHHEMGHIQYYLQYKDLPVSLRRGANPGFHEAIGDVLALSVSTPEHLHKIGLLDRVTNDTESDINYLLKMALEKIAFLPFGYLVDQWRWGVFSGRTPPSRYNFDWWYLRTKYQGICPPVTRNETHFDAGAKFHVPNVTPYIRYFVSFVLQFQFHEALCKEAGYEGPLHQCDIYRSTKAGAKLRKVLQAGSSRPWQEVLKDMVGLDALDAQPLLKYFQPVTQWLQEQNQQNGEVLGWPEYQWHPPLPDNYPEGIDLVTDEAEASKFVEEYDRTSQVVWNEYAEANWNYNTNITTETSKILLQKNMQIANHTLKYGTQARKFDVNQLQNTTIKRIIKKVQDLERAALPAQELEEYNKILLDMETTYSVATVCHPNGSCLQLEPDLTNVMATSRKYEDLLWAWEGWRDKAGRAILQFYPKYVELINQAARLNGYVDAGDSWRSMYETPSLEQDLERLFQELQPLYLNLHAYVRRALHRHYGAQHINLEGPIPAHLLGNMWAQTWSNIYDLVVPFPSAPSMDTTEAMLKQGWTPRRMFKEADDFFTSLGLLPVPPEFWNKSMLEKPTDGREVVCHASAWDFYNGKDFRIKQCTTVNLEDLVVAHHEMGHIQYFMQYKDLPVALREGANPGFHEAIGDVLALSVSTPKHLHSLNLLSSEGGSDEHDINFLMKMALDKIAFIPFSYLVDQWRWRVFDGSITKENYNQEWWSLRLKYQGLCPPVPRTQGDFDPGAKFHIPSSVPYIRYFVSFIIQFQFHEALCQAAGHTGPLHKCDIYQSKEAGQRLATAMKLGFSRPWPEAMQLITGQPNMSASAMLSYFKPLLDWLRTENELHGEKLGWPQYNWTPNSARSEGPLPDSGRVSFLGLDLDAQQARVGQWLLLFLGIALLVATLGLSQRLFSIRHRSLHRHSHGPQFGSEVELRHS

[1] = system: VCAM-1 surface expression, EA.hy926 cells; assay: VCAM-1 surface expression by flow cytometry; assay type: cell-based, human; settings: 100 ng/mL TNF-α alone
Procedure: (§1) EA.hy926 cells, the hybrid human umbilical vein endothelial cell line, were obtained from the American Type Culture Collection (ATCC® CRL2922™, Rockville, MD, USA). Cells were cultured in high glucose Dulbecco’s Modified Eagle’s Medium (DMEM), containing 10% heat-inactivated fetal bovine serum (FBS, Biowest, Riverside, CA, USA) and 50 U/mL of penicillin and 50 µg/mL streptomycin (Sigma Aldrich Chemical Co., Saint Louis, MO, USA). Cells were grown in 5% CO2 in a humidified air incubator at 37 °C. Subculture was performed when 90% confluence was reached.
(§2) EA.hy926 were seeded in six-well plates at 0.25 × 10^6 cells/well in DMEM supplemented with 5% FBS. Cells were treated with 300 µM of each peptide for 16 h. Then, 100 ng/mL TNF-α or 300 µM H2O2 were added for an additional 6 h or 24 h, respectively.
To measure adhesion molecule content in human endothelial cells by flow cytometry, the cell monolayer was detached and fixed before immunofluorescence labelling. […] Markers were set according to the negative controls to quantify the percentage of positively stained cells. Mean Fluorescence Intensity (MFI) was calculated for each antigen (MFI of total stained cells-MFI of negative control cells).

[2] = system: ICAM-1 mRNA, EA.hy926 cells; assay: ICAM-1 mRNA expression by RT-PCR in EA.hy926 cells; assay type: cell-based, human; settings: 100 ng/mL TNF-α alone, 6 h; p < 0.05
Procedure: as §1, §2
(§3) Total RNA was extracted from EA.hy926 cells using 300 µL Trisure™ (Bioline, Taunton, MA, USA) reagent and Direct-zol™ RNA MiniPrep (Zymo Research Irvine, Irvine, CA, USA) according to the manufacturer’s protocol. […] The mRNA levels of the target genes were quantified by RT-PCR using SensiFAST SYBER Hi-ROX Kit (Bioline, Taunton, MA, USA) with StepOnePlus Real-Time PCR System (Applied Biosystems, Foster City, CA, USA). […]
(§4) The relative quantification of gene expression was determined by the comparative fold change […] method. […]

[3] = system: eNOS mRNA, EA.hy926 cells; assay: eNOS mRNA expression by RT-PCR in EA.hy926 cells; assay type: cell-based, human
Procedure: as §1, §2
(§5) Total RNA was extracted from EA.hy926 cells using 300 µL Trisure™ (Bioline, Taunton, MA, USA) reagent and Direct-zol™ RNA MiniPrep (Zymo Research Irvine, Irvine, CA, USA) according to the manufacturer’s protocol. Total RNA was reverse-transcribed into complementary DNA (Sensifast cDNATM Synthesis kit, Bioline, Taunton, MA, USA). The mRNA levels of the target genes were quantified by RT-PCR using SensiFAST SYBER Hi-ROX Kit (Bioline, Taunton, MA, USA) with StepOnePlus Real-Time PCR System (Applied Biosystems, Foster City, CA, USA). Briefly, 5 µL of 1:5 diluted cDNA was added to the qPCR reaction containing 10 μL 2X SensiFAST Mix and 400 nM of each primer in a total volume of 20 μL.
(§6) Specific and validated primers for human glyceraldehyde-3-phosphate dehydrogenase (GADPH), intercellular adhesion marker-1 (ICAM-1), vascular cell adhesion marker-1 (VCAM-1), endothelial nitric oxide synthase (eNOS), interleukin 6 (IL-6), catalase, SOD (Super Oxide Dismutase), NADPH (Nicotinamide Adenine Dinucleotide Phosphate oxidase) and Bax (proapoptosis regulator) genes were used (Sigma-Aldrich Chemical Co., Saint Louis, MO, USA). […]
as §4

[4] = system: VCAM-1 mRNA, EA.hy926 cells; assay: VCAM-1 mRNA expression by RT-PCR in EA.hy926 cells; assay type: cell-based, human; settings: 100 ng/mL TNF-α alone, 6 h; p < 0.05
Procedure: as §1, §2, §5, §6, §4

[5] = system: ICAM-1 surface expression, EA.hy926 cells; assay: ICAM-1 surface expression by flow cytometry (MFI); assay type: cell-based, human
Procedure: as §1, §2
To measure adhesion molecule content in human endothelial cells by flow cytometry, the cell monolayer was detached and fixed before immunofluorescence labelling. The following antibodies were used per sample: 20 µL anti-ICAM-1/CD54-phycoerythrin (PE) (clone HA58, BD Biosciences, Franklin Lakes, NJ, USA) and 5 µL anti-VCAM-1/CD106-PerCP-Cy5.5 (clone 51–10C9; BD Biosciences, San Jose, CA, USA), according to the manufacturer’s protocol. Stained cells (10,000 events) were examined by flow cytometry (FACS Calibur, Becton Dickinson, Mountain View, CA, USA) in a simultaneous two-color analysis with FL2 (PE) and FL3 (PerCP-Cy5.5) channels. Markers were set according to the negative controls to quantify the percentage of positively stained cells. Mean Fluorescence Intensity (MFI) was calculated for each antigen (MFI of total stained cells-MFI of negative control cells).

[6] = system: ICAM-1 protein, EA.hy926 cells; assay: Intracellular ICAM-1 protein by western blot; assay type: cell-based, human; settings: 100 ng/mL TNF-α alone
Procedure: as §2
Supplementary Material and Methods
1.1. Human ACE Inhibitio n Assa y
Before transfection, the endothelial ACE expressio n level was very low and the p roduct of the enzymatic reaction undete ctable, and so a recombinant construct e ncodi ng the Myc-Tag fused to the ACE ge ne was used. T o overexpress the ACE enzyme, EA.hy926 cel ls were seeded in 24-well plates at 80,000 cells/well and transiently transfec ted with a human Ace ORF mammali an expression plasmid (Sinobiological, Beijing, China) using trans-it X2 reagent ( Myrus®, Madi son, […]
Wisconsin, USA). […] The effi ciency of […]
transfecti on was checked by immunofluorescence. Briefly, 48 h post-transfection, cells were fixed with 4% paraformaldehyd e in culture medi um for 15 min at room temperatur e, blocked with 1% bo vine seru m albumin (BSA) in phosph ate buffer for 30 min followed by 0.2% sapo nin for 30 min to permeabil ize the membr ane. […]
The mRNA level s of the target genes (ICAM-1, VCAM-1, IL-6, eNOS, SOD, catal ase, NADPH, BAX) were quantified by RT-PCR using Se nsiFAST SYBER Hi-ROX Kit (Bioline, Taunton, USA) with StepOnePlus Real-Time PCR Sy stem (Appl ied Bi osystems, Foster City, CA, USA) using speci fi c and vali dated pri mers (Si gma-Al drich Chemical Co., Saint Louis, MO, USA).
The tetr azolium assay (MTT) was used to estimate the cel l viability in the presence of synthetic pepti des (up to 600 µM) and 300 µM H2O2. […] The formazan crystals formed in the intact cel ls were dissol ved in 200 µL dimethyl sulfoxide (DMSO) for 30 min and the absorbance was measured in a micro plate reader at 570 nm and 620 nm of reference. Results wer e calculated as cel l viability (%) = average optic density (OD) of wells/ave rage OD of control wells. […]

[7] = system: IL-6 mRNA, EA.hy926 cells; assay: IL-6 mRNA expression by RT-PCR in EA.hy926 cells; assay type: cell-based, human
Procedure: as §1, §2, §3, §4

[8] = system: inflammatory markers (IL-6 and eNOS); settings: spontaneous hypertensive rats, DNA microarray; cited from earlier work
Description: In fact, multifunctional peptides interfere with more than one biological pathway, such as NO production, oxidative stress, and inflammation. […] Our interest in the use of an in vitro model of endothelial dysfunction was to further understand the reg ...

[9] = system: protein carbonylation, EA.hy926 cells; assay: Protein carbonylation (Oxyblot immunoblotting); assay type: cell-based, human; settings: 300 µM H2O2 alone, 30 min
Procedure: Protein carbonyl content is the most general and well-used biomarker of severe oxidative protein damage. Cel ls were treated with synthetic pepti des for 16 h before adding 300 µM H2O2 and leaving for additional 30 min. Protein carbonyl groups level s wer e determined by immuno blotting using the Oxyblot Protein Oxidation Detecti on Kit (Millipore Merck, Temecul a, CA, USA) according to the manufacturer’s protocol. PVDF membranes were blocked with 1% BSA in PBS–0.05% Tween 20 (v/v) (PBS-T) for 1 h at room temperature. The blots were incubated overnight at 20 °C with the polyclonal antibody. Subsequently, blots were washed (3–5 times) with PBS-T and incubated with goat anti-rabbit IgG/HRP c onjugate (1∶300 dilution in PBS/BSA) (Sigma-Al drich Chemical Co., Saint Louis, MO, USA) for 1 h at room temperature. […] In this condition, no signal was detected in the PVDF membr anes (data no t shown). The e mitted chemiluminescent signals wer e detected using a di gital imaging system (Im ageQuant LAS500, Thermo FisherScientific Inc., Rockford, IL, USA) after automatic exposition time. Quantitation of the densitometry plots for chemiluminescence detecti on was c arried out using ImageJ software for the analysis of 1D gels. Peaks were drawn from the di stinct western-blot bands, the area were calculated and normalized to co ntrol conditions.

BAX mRNA, EA.hy926 cells = assay: BAX mRNA expression by RT-PCR in oxidative conditions; assay type: cell-based, human; settings: 300 µM H2O2 alone, 24 h; p = 0.02
Procedure: as §2
as §5, with “μL. […]” for “μL.”
as §4

EA.hy926 cells = assay: Annexin V / propidium iodide apoptosis and necrosis by FACS; assay type: cell-based, human; settings: 300 µM H2O2 alone, three independent experiments, mean ± SD
Procedure: as §2
ApoScreen Annexin V Apoptosis Kit-FITC (Southern Biotech, Birmingham, AL, USA) was used to detect the apoptosis rate. After the co-incubation of synthetic peptides and 300 µM H2O2, 0.4 × 10^6 cells were detached and washed in cold PBS, then resuspended in 100 µL Annexin V binding buffer and treated following the manufacturer’s protocol. Annexin V-fluorescein isothiocyanate (FITC) binding was assessed in FL1 channel simultaneously with propidium iodide (FL2 channel). This test discriminates among intact cells (FITC−/PI−), apoptotic cells (FITC+/PI−), and necrotic cells (FITC+/PI+). Assays were performed in triplicate (Table S1).

[10] = 100 ng/mL TNF-α alone, 6 h, p < 0.05

Work on KPGRP [BP3] yielded an IC50 (human ACE) of 486 ± 43.5 µM.
In the case of TNF-α, the “VCAM-1 surface staining after TNF-α” value [1] is reported as “undetected; also recorded: hardly detectable”, the “ICAM-1 mRNA expression vs control” value [2] is reported as “increased” and the “eNOS mRNA expression vs control” value [3, 10] is reported as “decreased”. The “VCAM-1 mRNA expression vs control” value [4] was “increased”, the “ICAM-1 MFI” value ([5]; 100 ng/mL TNF-α alone, six independent experiments, mean ± SD, p = 0.0003 vs control (71.36 ± 8.31)) was 1271.91 ± 158.54 and the “ICAM-1 MFI on cell surface (in words)” value ([5]; TNF-α alone vs control, p = 0.0003) was “increase”. The “expression of 82–85 kDa protein corresponding to ICAM-1 (western blot)” value [6] was “induced” and the “IL-6 mRNA expression vs control” value [7, 10] was “increased”.
In the case of Ile-Pro-Pro [IPP, milk-derived peptide], the “inflammatory markers (IL-6 and eNOS)” value [8] is listed as “decrease in inflammatory markers (IL-6 and eNOS)”.
In the case of KPVAAP [BP1], the IC50 (human ACE) is reported as 59.2 ± 3.8 µM.
In the case of OO [H2O2, reference compound], the protein carbonylation level [9] is reported as “significantly increased”, the BAX expression increase (BAX mRNA, EA.hy926 cells) is reported as 1.5 fold and the “eNOS mRNA expression increase” value ([3]; 300 µM H2O2 alone, 24 h, p = 0.01) is reported as 3.3 fold. For the same compound, the “Necrosis (AnV+/PI+), % cells” value (EA.hy926 cells; p = 0.01 vs control (1.45 ± 0.24)) was 18.56 ± 3.38% and 18%, the “Apoptosis (AnV+/PI-), % cells” value (EA.hy926 cells; p = 0.03 vs control (0.90 ± 0.36)) was 10.37 ± 1.33% and 10% and the “IL-6 mRNA expression upregulation” value ([7]; 300 µM H2O2 alone, 24 h, p = 0.001) was 1.84 fold.
In the case of Val-Pro-Pro [VPP, milk-derived peptide], the “inflammatory markers (IL-6 and eNOS)” value [8] is listed as “decrease in inflammatory markers (IL-6 and eNOS)”.
